The nature of data set [1]: Hemolytic activity in rabbit erythrocytes measured after 1 hr by microplate reader analysis. The class given is ADME, cell-based, Oryctolagus cuniculus, Erythrocyte.
Data set [2] concerns Staphylococcus aureus. The data set is described as follows: Antibacterial activity against methicillin-resistant Staphylococcus aureus NCTC 10442 measured after 24 hrs by microplate reader analysis. The class given is functional.
The subject of data set [3] is Staphylococcus aureus. The data set is described as follows: Antibacterial activity against methicillin-resistant Staphylococcus aureus N315 measured after 24 hrs by microplate reader analysis. The class given is functional.
Data set [4] relates to Staphylococcus aureus. The data set is described as follows: Antibacterial activity against Staphylococcus aureus ATCC 29213 measured after 24 hrs by microplate reader analysis. In kind it is functional.
The nature of data set [5]: Solubility of the compound in water. The class given is physicochemical. To be noted: buffer.

≈ marks a conversion by molar mass, not a printed value.

The text below walks through data of ChEMBL document CHEMBL4725344, “Development of Highly Potent Carbazole Amphiphiles as Membrane-Targeting Antimicrobials for Treating Gram-Positive Bacterial Infections” (J Med Chem, 2020).

For orientation: HC50 means the concentration giving 50% haemolysis. A low value points to more damage to red cells. What is called MIC is the smallest concentration in the dilution series that meets the test's criterion for growth inhibition. Higher therefore signals a need for much substance. For `CCN(CC)CC(O)COc1cccc2c1c1ccccc1n2CC=C(C)C` (stereo not drawn), in data set [1], the HC50 at 1 h is 88.7 µg/mL. The MIC in data set [2], in data set [3] and in data set [4] was 12.5 mg/L (≈ 32.8 µM) in each case.

As for `CCCC[N+](C)(CCCC)CC(O)COc1cccc2c1c1ccccc1n2CC=C(C)C.[I-]` (stereo not drawn), the HC50 at 1 h in data set [1] stood at 61.3 µg/mL. Moreover, the minimum inhibitory concentration (MIC) in data set [2], in data set [3] and in data set [4] was 1.56 mg/L each time.

On to `CCCNCC(O)COc1cccc2c1c1ccccc1n2CC=C(C)C` (stereo not drawn), for which the HC50 at 1 h in data set [1] was above 200 µg/mL. Besides, the MIC was determined as 6.25 mg/L (≈ 17.1 µM) in data set [2], 3.12 mg/L (≈ 8.53 µM) in data set [3] and 6.25 mg/L (≈ 17.1 µM) in data set [4].

In data set [1], `CCCn1c2ccccc2c2c(OCC(O)CN(C)C)cccc21` (stereo not drawn) displayed an HC50 at 1 h above 200 µg/mL. In addition, the MIC in data set [2], in data set [3] and in data set [4] was 50 mg/L (≈ 153 µM) throughout.

`CC(C)=CCn1c2ccccc2c2c(OCC(O)CNC(C)C)cccc21` (stereo not drawn) gave an HC50 at 1 h in data set [1] of 160 µg/mL. The MIC came out at 3.12 mg/L (≈ 8.53 µM) in data set [2], 3.12 mg/L (≈ 8.53 µM) in data set [3] and 6.25 mg/L (≈ 17.1 µM) in data set [4].

In data set [1], `N=C(N)NCC(O)COc1cccc2[nH]c3ccccc3c12` (stereo not drawn) gave an HC50 at 1 h above 200 µg/mL. In addition, the MIC in data set [2], in data set [3] and in data set [4] was 50 mg/L (≈ 168 µM) in each case.

Compound `CC(C)=CCn1c2ccccc2c2c(OCC(O)CN3CCCC3)cccc21` (stereo not drawn) returned an HC50 at 1 h in data set [1] of 76.2 µg/mL. Moreover, the MIC in data set [2] was 6.25 mg/L (≈ 16.5 µM); in data set [3], 6.25 mg/L (≈ 16.5 µM); in data set [4], 12.5 mg/L (≈ 33 µM).

In data set [1], `CCCCCCCCCCNCC(O)COc1cccc2c1c1ccccc1n2CC=C(C)C` (stereo not drawn) came in with an HC50 at 1 h above 200 µg/mL. In addition, the MIC amounted to 3.12 mg/L (≈ 6.72 µM) in data set [2], 1.56 mg/L (≈ 3.36 µM) in data set [3] and 6.25 mg/L (≈ 13.4 µM) in data set [4]. The solubility result in data set [5] is “Insoluble”.

Take `CC[N+](C)(CC)CC(O)COc1cccc2c1c1ccccc1n2CC=C(C)C.[I-]` (stereo not drawn): in data set [1], the HC50 at 1 h is 142 µg/mL. Further, the MIC in data set [2], in data set [3] and in data set [4] was 6.25 mg/L throughout.

In turn, `CCCCCCCCCn1c2ccccc2c2c(OCC(O)CN(C)C)cccc21` (stereo not drawn) yielded an HC50 at 1 h in data set [1] of 128 µg/mL. Besides, the MIC was found to be 6.25 mg/L (≈ 15.2 µM) in data set [2], 6.25 mg/L (≈ 15.2 µM) in data set [3] and 12.5 mg/L (≈ 30.4 µM) in data set [4].

Turning to `CCCCCn1c2ccccc2c2c(OCC(O)CN(C)C)cccc21` (stereo not drawn), the HC50 at 1 h in data set [1] was 152 µg/mL. Moreover, the values for the MIC in data set [2], in data set [3] and in data set [4] were 6.25 mg/L (≈ 17.6 µM), 6.25 mg/L (≈ 17.6 µM) and 12.5 mg/L (≈ 35.3 µM), respectively.

`CC(C)=CCn1c2ccccc2c2c(OCC(O)CN3CCCCC3)cccc21` (stereo not drawn): the HC50 at 1 h in data set [1] was determined as 81.8 µg/mL. The figures for the MIC in data set [2], in data set [3] and in data set [4] were 3.12 mg/L (≈ 7.96 µM), 3.12 mg/L (≈ 7.96 µM) and 6.25 mg/L (≈ 15.9 µM), respectively.

In turn, `CCCn1c2ccccc2c2c(OCC3CO3)cccc21` (stereo not drawn) had an HC50 at 1 h in data set [1] above 200 µg/mL. The MIC in data set [2], in data set [3] and in data set [4] was above 50 mg/L each time.

In turn, `c1ccc2c(c1)[nH]c1cccc(OCC3CO3)c12` (stereo not drawn) yielded an HC50 at 1 h in data set [1] above 200 µg/mL. In addition, the MIC in data set [2], in data set [3] and in data set [4] was above 50 mg/L each time.

Compound `CC(C)NCC(O)COc1cccc2[nH]c3ccccc3c12` (stereo not drawn) [CARAZOLOL] displayed an HC50 at 1 h in data set [1] above 200 µg/mL. For the same compound, the MIC in data set [2], in data set [3] and in data set [4] was above 50 mg/L each time.

With `CC(C)=CCn1c2ccccc2c2c(OCC(O)CN3CCSCC3)cccc21` (stereo not drawn), the HC50 at 1 h in data set [1] is above 200 µg/mL. For the same compound, the MIC in data set [2], in data set [3] and in data set [4] was above 50 mg/L throughout.

In turn, `NCC(O)COc1cccc2[nH]c3ccccc3c12` (stereo not drawn) gave a concentration for 50% haemolysis (HC50) at 1 h in data set [1] above 200 µg/mL. For the same compound, the MIC in data set [2], in data set [3] and in data set [4] was above 50 mg/L throughout.

`CN(C)CC(O)COc1cccc2[nH]c3ccccc3c12` (stereo not drawn) displayed an HC50 at 1 h in data set [1] above 200 µg/mL. The MIC in data set [2], in data set [3] and in data set [4] was above 50 mg/L throughout.
